Assay results published in paper PMC10458307, “New Scaffolds of Proteasome Inhibitors: Boosting Anticancer Potential by Exploiting the Synergy of In Silico and In Vitro Methodologies” (Pharmaceuticals, 2023).
“And” between values parts separate entries of the source, which are not always exact repeats. Equal entries are not always repeated.

Columns and labels:
[1] = test system: HT-29 cells; assay: Cell viability, MTT assay, HT-29; format: cell-based, human; details: 72 h; for IC50: Homo sapiens, HT-29, mean ± SD; for percentage of cell viability, MTT, HT-29: at 100 µM
Protocol: (§1) Whenever possible, additional concentrations were tested and IC50 values were determined.
(§2) Human leukemia Jurkat E6.1 T-cell line and K562-cell line were originally obtained from ATCC Collections (Manassas, VA, USA); human HT-29 and HCT116 colorectal carcinoma-cell lines were obtained from ECACC (Porton Down, Porton, UK). Cells were passaged for less than 6 months after and routinely tested for mycoplasma contamination using Mycoalert detection kit (Lonza, Basel, Switzerland). Jurkat, K562, and HT-29 cells were maintained in Roswell Park Memorial Institute (RPMI) 1640 with GlutaMAX™, supplemented with 1% antibiotic mixture (100 µg/mL streptomycin and 100 U/mL penicillin) and 10% heat-inactivated foetal bovine serum (FBS) (all from Gibco, Thermo Fisher Scientific, Paisley, UK). HCT116 cells were maintained in Dulbecco’s Modified Eagle Medium (DMEM) with GlutaMAX™, supplemented with 1% antibiotic mixture (100 µg/mL streptomycin and 100 U/mL penicillin) and 10% heat-inactivated FBS (all from Gibco, Thermo Fisher Scientific, Paisley, UK). Incubation was performed at 37 °C in a 5% CO2 atmosphere. Cells were routinely passaged every 2 or 3 days at 70–90% confluence; TrypLE Express (Gibco, Thermo Fisher Scientific, Paisley, UK) was used as dissociation agent for adherent cells. Trypan blue (Gibco, Thermo Fisher Scientific, Paisley, UK) was used to assess cell viability using the dye exclusion test.
(§3) To assess cell viability, the MTT assay was performed. Jurkat/K562/HT-29/HCT116 cell lines were seeded in triplicate (10,000 cells/well) in 96-well plates with 50 µL of complete medium and incubated at 37 °C, 5% CO2 for 24 h to allow the cells to adhere to the plate (in the case of adherent cells). […] Untreated cells seeded in triplicate were used as control. The blank was performed in triplicate with 100 µL of culture medium. The cells were incubated with the compounds, in triplicate, in 100 µL of total volume, at 37 °C, 5% CO2 for 72 h. […] In suspension cells (Jurkat), 25 µL of MTT were directly added to each well and, after 3 h 30 m of incubation, 100 µL of DMSO were added to solubilize the formazan crystals; in adherent cells (HT-29 and HCT116), the culture medium was removed, 25 µL of MTT were added to each well and, after 3 h 30 m of incubation, upon MTT removal, 100 µL of DMSO were added to solubilize the formazan crystals. After 15 min, the samples absorbance was measured at 570 nm and the percentage of cell viability was determined.

[2] = molecular target: T1, 20S proteasome in K562 cell lysates, CT-L activity (Homo sapiens, UniProt P28074); assay: Proteasome inhibition assay in cell lysates, K562, CT-L; details: for inhibition at 10 µM: read-out: percentage of proteasome inhibition, CT-L, cell lysates K562, at 10 µM; for inhibition at 100 µM: read-out: percentage of proteasome inhibition, CT-L, cell lysates K562, at 100 µM
T1 sequence (P28074 60-263): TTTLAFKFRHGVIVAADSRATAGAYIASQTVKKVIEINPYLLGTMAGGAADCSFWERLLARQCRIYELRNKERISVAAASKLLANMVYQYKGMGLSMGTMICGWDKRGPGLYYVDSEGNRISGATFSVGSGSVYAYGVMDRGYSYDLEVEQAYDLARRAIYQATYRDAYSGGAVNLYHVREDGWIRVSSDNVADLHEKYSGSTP
T1 sequence (P20618 29-241 partner): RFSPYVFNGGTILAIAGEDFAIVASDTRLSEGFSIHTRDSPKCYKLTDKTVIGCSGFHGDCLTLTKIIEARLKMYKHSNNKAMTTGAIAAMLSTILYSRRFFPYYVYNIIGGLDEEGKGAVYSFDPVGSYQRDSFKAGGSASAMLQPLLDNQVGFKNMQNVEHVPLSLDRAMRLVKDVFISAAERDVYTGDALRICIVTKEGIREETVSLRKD
Protocol: Cells were obtained from several cultured cell lines: Jurkat, K562, HT-29, and HCT116. Pellets with 20 × 10^6 cells were prepared and washed with cold sterile phosphate buffered saline (PBS), 1×, pH 7.4 (Gibco, Thermo Fisher Scientific, Paisley, UK). The preparation of the lysates from several cell lines was performed based on the methodology described by Gavioli et al. [67]. Cells were resuspended in buffer containing 50 mM TRIS-HCl pH 7.4 (Nzytech, Lisboa, Portugal), 5 mM MgCl2 (≥98% purity, Merck, Hamburg, Germany), 1 mM DTT (Merck, Hamburg, Germany), 2 mM ATP (≥98% purity, Enzo Life Sciences Inc., Farmingdale, NY, USA), and 250 mM saccharose (Merck, Hamburg, Germany). Glass beads (Merck, Hamburg, Germany) equivalent to the volume of the cell suspension were added, and the mixture was vortexed for 2 min at 4 °C. Beads and cell debris were removed using 5 min centrifugation at 1000× g and 4 °C, followed by 20 min of centrifugation at 10,000× g at 4 °C. Cell lysates containing proteasomes were resuspended in “activity buffer” [50 mM TRIS-HCl (pH 7.4), 5 mM MgCl2, 1 mM DTT, 2 mM ATP (≥98% purity, Enzo Life Sciences Inc., Farmingdale, NY, USA), and 500 µM EDTA (≥98% purity, Merck, Hamburg, Germany)]. Protein concentration was determined using the Pierce™ BCA protocol (Thermo Fisher Scientific, Rockford, IL, USA). […] DMSO was added in an equal volume as used for the untreated compounds as a way to assess/control its influence in the assay. Untreated cells were used as control. In each well of a 96-well plate, 25 µL of lysate were seeded in duplicate with 25 µL of the compound to test; in the control, 25 µL of activity buffer were added to the 25 µL of lysate. A blank (50 µL of activity buffer) was added to the wells in quadruplicate. Cell lysates, pre-treated or not with different concentrations of the test compounds, were incubated for 30 min at 37 °C. […] Stock solutions (10 mM) of each substrate were prepared in DMSO, diluted in activity buffer, and 50 µL were added to all wells (final concentration of each substrate = 100 µM), followed by an incubation at 37 °C for 60 min. Samples fluorescence was measured at an excitation wavelength of 360 nm and emission of 465 nm; the fluorescence measures were performed using the GloMax-Multi + Detection System (Promega Corp., Madison, WI, USA). Activity was evaluated in fluorescence units, after being converted to percentage of proteasome inhibition and, whenever possible, expressed as IC50 by plotting the inhibition data of each compound at different concentrations against the log of the concentration of the inhibitor, using the GraphPad Prism software version 7. At least eight different concentrations of the test compounds were used.

[3] = test system: proteasome CT-L active site; details: literature values of known proteasome inhibitors; reference per compound; cited from earlier work
[4] = test system: proteasome C-L active site; details: literature values; ref 34 (bortezomib), 35 (ixazomib); cited from earlier work
[5] = test system: K562 cells; assay: Cell viability, MTT assay, K562; format: cell-based, human; details: at 100 µM, 72 h
Protocol: as §1, §2, §3

[6] = molecular target: T2, isolated human 20S proteasome, C-L activity (Homo sapiens, UniProt P28072); assay: Proteasome inhibition assay in isolated human 20S proteasomes (Proteasome-Glo), C-L activity; format: biochemical; details: mean ± SD
T2 construct: human purified erythrocyte-derived 20S proteasome; purchased Enzo Life Sciences, Inc; host or cells: human erythrocytes (natural source)
From the text: In this assay, the peptide substrates are bound to aminoluciferin (Suc-LLVY-AML for CT-L activity, Z-nLPnLD-AML for C-L, and Z-LRR-AML for T-L), leading the cleavage of these substrates by the proteasome to the release of free aminoluciferin, which is the substrate of the buffer-contained luciferase.
To evaluate human purified erythrocyte-derived 20S proteasome inhibitory activity of the chosen compounds, the Proteasome-Glo™ 3-substrate system (Promega Corporation, Madison, WI, USA) was employed. The Proteasome-Glo™ reagents of the three proteolytic activities were prepared according to the manufacturer’s instructions, aliquoted, and stored at either −20 °C or 4 °C, avoiding freezing–thaw cycles. […] The purified 20S proteasome (Enzo Life Sciences, Inc., Farmingdale, NY, USA) was diluted in HEPES buffer 10 mM, pH 7.4, to a concentration experimentally adjusted to the signal/noise ratio obtained with each particular lot of Proteasome-Glo™ reagent, in order to have a good compromise between sensitivity and linear response. […] All assays were performed in white-walled multiwell plates (Thermo Scientific™ Sterilin™ White Microtiter™ plates, Thermo Fisher Scientific, Paisley, UK) in duplicates. The proteasome solution (25 μL) was added to each well first, then the diluted solutions of the assayed compounds (25 μL), and lastly the Proteasome-Glo™ Reagent (50 μL). […] Reagents were added to the plate well on ice, and the plate was then transferred to the plate luminometer (SpectraMax®, Molecular Devices, LLC, San Jose, CA, USA) set at 37 °C, gently mixed for 30 s, and the measurements were immediately started in kinetic mode, with data collected every 5 min for at least 60 min.
All compounds were dissolved in DMSO at a concentration of 10 mM and stored at −20 °C or 4 °C. Solutions of the test compounds were prepared at their adequate dilutions in 10 mM HEPES buffer pH 7.6 before each experiment.
To calculate the proteasome activity over time, the value of mean relative luminescence units (RLU) of blank wells at each respective time point was subtracted, and then the ratio between mean RLU of the sample and mean RLU of the positive control wells was calculated for each time point and expressed as percentage.

[7] = at 100 µM, Table 2 legend: bortezomib 10 µM
[8] = Table 2 legend: bortezomib 10 µM

SMILES	IC50 [1] [µM]	percentage of proteasome inhibition, CT-L, cell lysates K562 ([2]; at 10 µM) [%]	percentage of proteasome inhibition, CT-L, cell lysates K562 [2, 7]	inhibition at 10 µM [2] [%]	inhibition at 100 µM [2, 8] [%]	IC50 [6] [µM]	IC50 [3] [nM]	IC50 [4] [µM]	percentage of cell viability, MTT, K562 [5] [%]	percentage of cell viability, MTT, HT-29 [1] [%]
CC(C)C[C@H](NC(=O)[C@H](Cc1ccccc1)NC(=O)c1cnccn1)B(O)O [Bortezomib, bortezomib, reference compound]	0.00973	95.17	99.60% and 100%				7	0.074		
Cc1ccc2ccccc2c1CSc1ncnc2c1ncn2C1OC(CO)C(O)C1O (centres unmarked) [Compound 1]	61.7		63%	0	62.7				18	23
O=C1c2ccccc2C(=O)c2c(Nc3ccc(S(=O)(=O)N(CCO)CCO)cc3)ccc(O)c21 [Compound 2]			40%	13.2	40.1	2.42			86.52	65

Second part, led by results:

IC50 [1] [µM]	percentage of proteasome inhibition, CT-L, cell lysates K562 ([2]; at 10 µM) [%]	percentage of proteasome inhibition, CT-L, cell lysates K562 [2, 7]	inhibition at 10 µM [2] [%]	inhibition at 100 µM [2, 8] [%]	IC50 [6] [µM]	SMILES	IC50 [3] [nM]	IC50 [4] [µM]	percentage of cell viability, MTT, K562 [5] [%]	percentage of cell viability, MTT, HT-29 [1] [%]
		59%	9.34	59.1	51.1	Cc1ccc(/C(=N/NS(=O)(=O)c2ccc([N+](=O)[O-])cc2)Sc2cc(Cl)c(C)cc2S(N)(=O)=O)cc1 [Compound 3]				
43					41.2	C#CCCN1CCN(c2ccc(-n3c(=O)ccc4cnc5ccc(-c6ccc(N)nc6)cc5c43)cc2C(F)(F)F)CC1 [Compound 4, 9-(6-Aminopyridin-3-yl)-1-(4-(4-(but-3-yn-1-yl)piperazin-1-yl)-3-(trifluoromethyl)phenyl)benzo[h][1,6]naphthyridin-2(1H)-one]				34
70.5						CC(C)c1nc(CN(C)C(=O)N[C@@H](CCN2CCOCC2)C(=O)N[C@H](CC[C@H](Cc2ccccc2)NC(=O)OCc2cncs2)Cc2ccccc2)cs1 [Compound 5, cobicistat, reference compound]				25
